Like-named read-outs stand apart in the source and are kept apart here.
What was measured:
[1] = target: Human M3 receptor membranes (Homo sapiens (Human), UniProt P20309); experiment: M3 Receptor radioligand binding assay; conditions: for Ki: Ki from IC50 by Cheng and Prusoff
Protocol: M3 Receptor Radioligand Binding Assay:
The assay is carried out in 96-well polypropylene plates in a volume of 250 μl. […] The final assay concentration of DMSO is 0.5% (v/v). The plates are sealed and incubated for 2 h at room temperature on an orbital shaker (slow speed). Membranes are harvested onto 96-well unifilter GF/C filter plates pre-treated with 0.5% polyethyleneimine (v/v), using a filter manifold, washed four times with 200 μl of assay buffer. The plates are dried before addition of 50 μl of microscint-0, sealed then read in a Trilux Microbeta scintillation counter. IC50 values are determined from competition curves using a non-linear curve fitting program. Ki values are calculated from IC50 values by the Cheng and Prusoff equation.

[2] = test system: Cch-evoked bronchoconstriction in rats; experiment: Bronchospasm, percentage of inhibition (Cch-induced bronchoconstriction, duration of action); format: in vivo, Male CD Sprague Dawley rats; conditions: rat; for sub-maximal inhibition Dose: Dose producing about 80% (sub-maximal) inhibition of the bronchospasm after 1 h, intratracheal; for inhibition at 16 h: inhibition of bronchospasm 16 h after intratracheal administration of the sub-maximal inhibition dose
Protocol: Protocol of Bronchospasm—Percentage of Inhibition
Male CD Sprague Dawley rats (220-250 g) were purchased from Charles River Laboratories Italy (Calco, Lecco). Prior to use animals were acclimated for at least 5 days to the local vivarium conditions (room temperature: 20-24° C.; relative humidity: 40-70%), having free access to standard rat chow and softened tap water. All the procedures were performed in animal operating rooms according to ethical guidelines for the conduct of animal research (D. L.vo 116/92).
Treatment with Test Compounds
Animals were anaesthetised with Urethane (1.2 g/kg, i.p.) and a laryngoscope was moved forward into the mouth to visualize the trachea and guide the insertion of the tip of a custom made small diameter cannula directly into the trachea and located 1-2 mm above the bifurcation. Test compounds were dissolved in 100% dimethyl sulphoxide (DMSO) at 10^−2 M. The target concentration was obtained by dilution of the DMSO stock in saline. Test compounds were instilled locally into the trachea in a volume of 125 μl.
In order to assess the residual inhibitory activity of test compounds at 1-16 hours after their administration, rats were surgically prepared. In order to assess the Cch-induced bronchoconstriction in rats, the infusion of physiological solution was stopped and the bronchospastic agent injected into the jugular vein using the same cannula. Soon after washing the cannula with saline to ensure the complete administration of the bronchoconstrictor agent, the saline infusion was started again. Body temperature was kept constant at 37° C. by a heated blanket.
The trachea was cannulated and the lungs were ventilated artificially with a small animal constant volume ventilator (rodent ventilator mod. 7025, Ugo Basile, Comerio, Varese, Italy) at a frequency of 80 strokes/min and at a tidal volume of 2.5 ml/kg. To avoid spontaneous breathing, the animals were injected intravenously (i.v.) with pancuronium bromide (2 mg/kg). Bronchoconstriction was induced by the i.v. injection of Cch 50 μg/kg. In control experiments, repeated injections of this dose produced reproducible short-lasting (1-2 min duration) bronchospasms. Bronchoconstriction, quantified as a reduction of tidal volume, was evaluated according to the method described by Konzett & Roessler in Konzett H. and Roessler R., Versuchanornungzu untersuchungen ande bronchialmuskulatur. Arch. Exp. Path. Pharmak.; 195:71-74 (1940), which is incorporated herein by reference in its entirety.
Systemic blood pressure and changes in airway resistance were monitored with a digital pressure transducer connected to a bridge amplifier (PowerLab; Ugo Basile, Italy) and recorded using Chart 5 software (Ugo Basile, Italy).
After stabilization of artificial breathing and blood pressure, animals were injected (i.v.) with Cch every 3 min, until 3 stable and reproducible basal responses were obtained. […] The effect of test compounds was expressed as % inhibition of Cch-evoked bronchoconstriction in time-matched, vehicle-treated, animals (controls).

Human recombinant PDE4B2 = Human recombinant PDE4B2 (Homo sapiens (Human), UniProt Q07343); experiment: PDE4B2 HTRF assay; format: biochemical
Protocol: PDE4B2 activity is detected using the LANCE Ultra cAMP homogeneous time resolved fluorescence resonance energy transfer (TR-FRET) assay from Perkin Elmer. The assay is based on the competition between the europium (Eu) chelate-labeled cAMP tracer and sample cAMP for binding sites on cAMP-specific monoclonal antibodies (mAb) labelled with the ULight™ dye. The assay is carried out in 384-well low volume plates in a volume of 10 μl. Human recombinant PDE4B2 (80 pM) is incubated for 2 h with 3 nM cAMP in buffer containing 1×HBSS, 5 mM HEPES, 3 mM MgCl2, 0.1% BSA, pH 7.4 with or without test compounds. The enzymatic reactions are efficiently stopped by the addition of 500 μM IBMX present in the combined Stop/Detection buffer containing europium (Eu) chelate-labeled cAMP tracer and cAMP-specific monoclonal antibodies (mAb) labelled with the ULight™ dye. […] IC50 values are determined from competition curves using a non-linear curve fitting program.

[3] = test system: smoking model of COPD in mice; conditions: cited from earlier work
COPD patients = conditions: cited from earlier work
[4] = M3 Receptor radioligand binding assay
[5] = M3 Receptor radioligand binding assay, read-out: M3 IC50
[6] = M3 Receptor radioligand binding assay, read-out: M3 IC50 activity
[7] = PDE4B2 HTRF assay, read-out: PDE4B2 IC50 activity
[8] = patients with severe disease, frequent exacerbations and mucus hypersecretion

Human recombinant PDE4B2, sequence (Q07343 other isoform, or with tags, fused parts or gaps): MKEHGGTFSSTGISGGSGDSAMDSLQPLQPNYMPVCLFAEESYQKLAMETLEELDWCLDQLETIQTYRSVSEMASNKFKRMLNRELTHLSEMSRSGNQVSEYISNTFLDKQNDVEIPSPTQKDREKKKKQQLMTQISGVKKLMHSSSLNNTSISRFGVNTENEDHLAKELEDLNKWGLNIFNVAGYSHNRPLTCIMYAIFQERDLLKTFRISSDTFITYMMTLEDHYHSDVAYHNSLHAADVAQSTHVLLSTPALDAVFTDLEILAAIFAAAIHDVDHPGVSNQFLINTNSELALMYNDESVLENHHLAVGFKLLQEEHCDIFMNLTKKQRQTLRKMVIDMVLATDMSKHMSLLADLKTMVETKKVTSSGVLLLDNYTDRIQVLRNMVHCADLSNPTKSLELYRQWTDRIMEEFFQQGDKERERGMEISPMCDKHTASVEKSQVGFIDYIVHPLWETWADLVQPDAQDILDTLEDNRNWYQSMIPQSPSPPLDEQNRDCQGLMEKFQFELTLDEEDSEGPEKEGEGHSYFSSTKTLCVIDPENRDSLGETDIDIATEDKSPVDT
Human M3 receptor membranes, sequence (P20309 whole entry): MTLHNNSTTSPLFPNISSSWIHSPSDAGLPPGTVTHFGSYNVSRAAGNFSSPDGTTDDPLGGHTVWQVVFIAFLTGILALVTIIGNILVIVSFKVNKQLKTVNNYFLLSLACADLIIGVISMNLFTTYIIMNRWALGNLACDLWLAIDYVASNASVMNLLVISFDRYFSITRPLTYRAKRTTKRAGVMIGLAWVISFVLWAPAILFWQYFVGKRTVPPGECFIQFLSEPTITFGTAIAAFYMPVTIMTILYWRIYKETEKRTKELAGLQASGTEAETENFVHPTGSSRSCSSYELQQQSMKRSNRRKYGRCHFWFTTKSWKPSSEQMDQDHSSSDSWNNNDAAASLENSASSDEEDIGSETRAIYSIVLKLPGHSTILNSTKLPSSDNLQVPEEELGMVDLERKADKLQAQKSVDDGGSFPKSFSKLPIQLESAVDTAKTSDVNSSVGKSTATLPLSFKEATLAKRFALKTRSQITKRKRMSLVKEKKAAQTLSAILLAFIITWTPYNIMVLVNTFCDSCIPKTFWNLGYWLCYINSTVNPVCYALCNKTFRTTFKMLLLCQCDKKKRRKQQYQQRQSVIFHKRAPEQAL

Structure (SMILES) | sub-maximal inhibition Dose [2] [nmol/kg] | inhibition at 16 h [2] [%] | IC50 [1, 6] [nM] | IC50 (Human recombinant PDE4B2; [7]) [nM] | further results
COc1ccc([C@H](Cc2c(Cl)c[n+]([O-])cc2Cl)OC(=O)c2ccc(CNC(C(=O)O[C@H]3CCN(C)C3)c3ccccc3)s2)cc1OC (single isomer, unassigned) [Example 78c, reference compound] | 100 | 26 | – | – | Ki [1, 4]: 0.54 nM; IC50 [1, 5]: 1.08 nM
COc1ccc([C@H](Cc2c(Cl)c[n+]([O-])cc2Cl)OC(=O)c2ccc(CNC(C(=O)OC3CCN(C)CC3)c3ccccc3)s2)cc1OC (single isomer, unassigned) [Example 87c, reference compound] | 30 | <10 | – | – | Ki [1, 4]: 0.3 nM; IC50 [1, 5]: 0.5 nM
COc1ccc([C@H](Cc2c(Cl)c[n+]([O-])cc2Cl)OC(=O)c2ccc(CNC(CO)(C(=O)OC3CCN(C)CC3)c3ccccc3)s2)cc1OC (single isomer, unassigned) [Example 105c, reference compound] | 10 | 35 | – | – | Ki [1, 4]: 0.23 nM; IC50 [1, 5]: 0.45 nM
COc1ccc([C@H](Cc2c(Cl)c[n+]([O-])cc2Cl)OC(=O)c2ccc(CNC(C(=O)OC[C@@H]3CN(C)CCN3C)c3ccccc3)s2)cc1OC (stereo partly drawn) [Example 32, [(1S)-2-(3,5-dichloro-1-oxido-pyridin-1-ium-4-yl)-1-(3,4-dimethoxyphenyl)ethyl] 5-[[[2-[[(2S)-1,4-dimethylpiperazin-2-yl]methoxy]-2-oxo-1-phenyl-ethyl]amino]methyl]thiophene-2-carboxylate] | – | – | 10 to 100 | 1 to 10 | –
COc1ccc(C(Cc2c(Cl)c[n+]([O-])cc2Cl)OC(=O)c2ccc(CNC(C(=O)OCC3CCN(C)CC3)c3cccc(O)c3)s2)cc1OCC1CC1 (centres unmarked) [Example 47, [1-[3-(cyclopropylmethoxy)-4-methoxy-phenyl]-2-(3,5-dichloro-1-oxido-pyridin-1-ium-4-yl)ethyl]5-[[[1-(3-hydroxyphenyl)-2-[(1-methyl-4-piperidyl)methoxy]-2-oxo-ethyl]amino]methyl]thiophene-2-carboxylate] | – | – | 1 to 10 | 1 to 10 | –
COc1ccc([C@H](Cc2c(Cl)c[n+]([O-])cc2Cl)OC(=O)c2ccc(CNC(C(=O)OC[C@@H]3CCCN(C)C3)c3ccccc3)s2)cc1OC (stereo partly drawn) [Example 49, [(1S)-2-(3,5-dichloro-1-oxido-pyridin-1-ium-4-yl)-1-(3,4-dimethoxyphenyl)ethyl]5-[[[2-[[(3R)-1-methyl-3-piperidyl]methoxy]-2-oxo-1-phenyl-ethyl]amino]methyl]thiophene-2-carboxylate] | – | – | 10 to 100 | 1 to 10 | –
COc1ccc([C@H](Cc2c(Cl)c[n+]([O-])cc2Cl)OC(=O)c2ccc(CNC(C(=O)OC[C@H]3CCN(C)C3)c3ccccc3)s2)cc1OC (stereo partly drawn) [Example 78, [(1S)-2-(3,5-dichloro-1-oxido-pyridin-1-ium-4-yl)-1-(3,4-dimethoxyphenyl)ethyl] 5-[[[2-[[(3S)-1-methylpyrrolidin-3-yl]methoxy]-2-oxo-1-phenyl-ethyl]amino]methyl]thiophene-2-carboxylate] | 30 | 51 | 1 to 10 | – | –
COc1ccc([C@H](Cc2c(Cl)c[n+]([O-])cc2Cl)OC(=O)c2ccc(CNC(C(=O)OCC3CCN(C)CC3)c3ccccc3)s2)cc1OC (stereo partly drawn) [Example 87, [(1S)-2-(3,5-dichloro-1-oxido-pyridin-1-ium-4-yl)-1-(3,4-dimethoxyphenyl)ethyl] 5-[[[2-[(1-methyl-4-piperidyl)methoxy]-2-oxo-1-phenyl-ethyl]amino]methyl]thiophene-2-carboxylate] | 10 | >90 | – | – | –
COc1ccc([C@H](Cc2c(Cl)c[n+]([O-])cc2Cl)OC(=O)c2ccc(CNC(CO)(C(=O)OCC3CCN(C)CC3)c3ccccc3)s2)cc1OC (stereo partly drawn) [Example 105, [(1S)-2-(3,5-dichloro-1-oxido-pyridin-1-ium-4-yl)-1-(3,4-dimethoxyphenyl)ethyl] 5-[[[1-(hydroxymethyl)-2-[(1-methyl-4-piperidyl)methoxy]-2-oxo-1-phenyl-ethyl]amino]methyl]thiophene-2-carboxylate] | 30 | 88 | – | – | –
COCCOc1cc([C@H](Cc2c(Cl)c[n+]([O-])cc2Cl)OC(=O)c2ccc(CNC(C(=O)OCC3CCN(C)CC3)c3ccccc3)s2)ccc1OC(F)F (stereo partly drawn) [Example 113, [(1S)-2-(3,5-dichloro-1-oxido-pyridin-1-ium-4-yl)-1-[4-(difluoromethoxy)-3-(2-methoxyethoxy)phenyl]ethyl] 5-[[[2-[(1-methyl-4-piperidyl)methoxy]-2-oxo-1-phenyl-ethyl]amino]methyl]thiophene-2-carboxylate] | – | – | 1 to 10 | 1 to 10 | –
COc1ccc([C@H](Cc2c(Cl)c[n+]([O-])cc2Cl)OC(=O)c2ccc(CNC(C(=O)OCC3C[C@H]4CC[C@@H](C3)N4C)c3ccccc3)s2)cc1OC (stereo partly drawn) [Example 114, [(1S)-2-(3,5-dichloro-1-oxido-pyridin-1-ium-4-yl)-1-(3,4-dimethoxyphenyl)ethyl] 5-[[[2-[[(1R,5S)-8-methyl-8-azabicyclo[3.2.1]octan-3-yl]methoxy]-2-oxo-1-phenyl-ethyl]amino]methyl]thiophene-2-carboxylate] | – | – | – | – | IC50 [1]: 10 to 100 nM; IC50 (Human recombinant PDE4B2): 1 to 10 nM
COc1ccc([C@H](Cc2c(Cl)c[n+]([O-])cc2Cl)OC(=O)c2ccc(CNC(CO)(C(=O)OCC34CCN(CC3)CC4)c3ccccc3)s2)cc1OC (stereo partly drawn) [Example 117, [(1S)-2-(3,5-dichloro-1-oxido-pyridin-1-ium-4-yl)-1-(3,4-dimethoxyphenyl)ethyl]5-[[[1-(hydroxymethyl)-2-oxo-1-phenyl-2-(quinuclidin-4-ylmethoxy)ethyl]amino]methyl]thiophene-2-carboxylate] | – | – | < 1 | 1 to 10 | –
O=C(Nc1c(Cl)cncc1Cl)c1ccc(OC(F)F)c(OCC2CC2)c1 [roflumilast] | – | – | – | – | lung inflammation and emphysema [3]: inhibits lung inflammation and emphysema; reduction of numbers of neutrophils in sputum (COPD patients; COPD patients, oral, over 4 weeks): 36%; improvement of FEV 1 (COPD patients; [8]): approximately 50 mL; reduction of exacerbation (COPD patients; [8]): about 15%

From patent US9636336B2, “Aminoester derivatives” (CHIESI FARMACEUTICI S.p.A., priority 2015, dated 2017)
